Key:
[1] = tested on: advanced solid tumors; test: Phase 1 combination study: tumor response (RECIST); type: in vivo, human
Description: Circulating nucleic acids were analyzed for PIK3CA (exons 9 and 20), KRAS (exons 2 and 3), and BRAF (exons 11 and 15) mutations. DNA extracted from whole blood samples was subjected to real-time quantitative polymerase chain reaction and spectrophotometric analysis as part of the quality control process, as previously described. Mutation screening was performed using Surveyor Nuclease (Transgenomic, Inc., Nebraska, USA). Radiologic assessment (computed tomography [CT] and/or magnetic resonance imaging [MRI] scans) of disease status was performed at baseline and every 6 weeks according to Response Evaluation Criteria in Solid Tumors (v1.0).

[2] = tested on: patients with advanced solid tumors; settings: cited from earlier work

NC1(c2ccc(-c3nc4ccn5c(=O)[nH]nc5c4cc3-c3ccccc3)cc2)CCC1 [MK-2206]
duration of SD ([1]; 1 metastatic breast cancer patient harboring a PIK3CA mutation (exon 20)): 4 months | duration of PR, range ([1]; arm 1): 2–21 months | median duration of PR ([1]; arm 1): 11 months | confirmed partial responses, patients ([1]; arm 1, QOD and Q3W schedules, melanoma, neuroendocrine prostate, endometrial, cervical): 4 | duration of unconfirmed PR ([1]; arm 1, SCC of the head and neck (n = 1)): 2 month | unconfirmed PRs, patients ([1]; arm 1, SCC of the head and neck, and gastric): 2 patients | duration of confirmed PR ([1]; arm 1, cervical (n = 1)): 6 month | duration of confirmed PR ([1]; arm 1, endometrial (n = 1)): 4 month | duration of unconfirmed PR ([1]; arm 1, gastric (n = 1)): 2 month | duration of confirmed PR ([1]; arm 1, melanoma (n = 1)): 21 month | duration of confirmed PR ([1]; arm 1, neuroendocrine prostate (n = 1)): 6 month | complete response, patients ([1]; arm 1 carboplatin and paclitaxel, squamous cell carcinoma (SCC) of the orbit, 24 evaluable): 1 patient | duration of PR ([1]; arm 2, MK-2206 200 mg with docetaxel, NSCLC patient): 6 months | confirmed PR, patients ([1]; arm 2, Q3W MK-2206 and docetaxel, NSCLC): One | objective responses ([1]; arm 3 erlotinib): No objective responses | best response SD, duration ([1]; arm 3 erlotinib, QW schedule, patient with NSCLC): 7 months | best response SD, duration ([1]; arm 3 erlotinib, patient with cervical cancer): 6 months | duration of SD, range ([1]; in vivo): 1–13 months | median duration of SD ([1]; in vivo): 7 months | patients with SD lasting at least 6 months ([1]; in vivo): Six | duration of SD ([1]; patients harboring PIK3CA mutations): 1.7 to 5.8 months | duration of SD ([1]; patients with KRAS mutations): 1.4 to 3.0 months | MTD of single-agent MK-2206 ([2]; QOD): 60 mg | MTD of MK-2206 monotherapy ([2]; QW, monotherapy phase 1 study): 200 mg | half-life (t1/2) ([2]; single agent, QOD schedule): 60 to 80 h | dose-limiting toxicities (DLT) ([2]; single agent): rash and stomatitis | plasma concentration corresponding to 70% AKT inhibition ([2]; single-agent phase 1 study): 56.8 nM

Reference: PMC3884022 (Journal of Hematology & Oncology, 2014)
